Legend:
histone deacetylase = assay: in vitro inhibition of histone deacetylase by HDAC inhibitor screening kit (Biovision K340-100); format: biochemical
Experimental: An assay for determining the in vitro inhibition activity of the compound on histone deacetylase is conducted according to the specification of HDAC inhibitor screeing kid (Biovision Company/Catalog #K340-100). […]

[1] = tested on: Hut78 T-cell Leukemia cell; assay: CCK-8 proliferation inhibition, Hut78; format: cell-based; details: for inhibition at 10 µM / inhibition at 100 µM: Homo sapiens, read-out: Hut-78 (inhibition %); for inhibition at 10 µM: HuT78, 10 μM; for inhibition at 100 µM: HuT78, 100 μM
Experimental: (§1) Detecting the inhibition rate of the compound concentrations of 100 μM and 10 μM to Hut78 T-cell Leukemia cell, Jurkat E6-1 human T-cell lymphoma, PANC-1 human pancreatic cancer cells, A549 human lung cancer cells, K562 human chronic myeloid leukemia cells, Hep3B2.1-7 human liver cancer cells, MDA-MB-435s human breast cancer cells, Colo320 human rectal cancer cells and PC-3 human prostate cancer using CCK-8 method.

[2] = tested on: PANC-1 human pancreatic cancer cells; assay: CCK-8 proliferation inhibition, PANC-1; format: cell-based; details: for inhibition at 10 µM / inhibition at 100 µM: Homo sapiens; for inhibition at 10 µM: PANC-1, 10 μM; for inhibition at 100 µM: PANC-1, 100 μM
Experimental: as §1

[3] = tested on: Jurkat E6-1 human T-cell lymphoma; assay: CCK-8 proliferation inhibition, Jurkat E6-1; format: cell-based; details: for inhibition at 10 µM / inhibition at 100 µM: Homo sapiens; for inhibition at 10 µM: Jurkat E6.1, 10 μM; for inhibition at 100 µM: Jurkat E6.1, 100 μM
Experimental: as §1

[4] = tested on: K562 human chronic myeloid leukemia cells; assay: CCK-8 proliferation inhibition, K562; format: cell-based; details: for inhibition at 10 µM / inhibition at 100 µM: Homo sapiens; for inhibition at 10 µM: K562, 10 μM; for inhibition at 100 µM: K562, 100 μM
Experimental: as §1

[5] = tested on: A549 human lung cancer cells; assay: CCK-8 proliferation inhibition, A549; format: cell-based; details: CCK-8 method; for inhibition at 10 µM / inhibition at 100 µM: Homo sapiens, A549
Experimental: as §1

[6] = tested on: MDA-MB-435s human breast cancer cells; assay: CCK-8 proliferation inhibition, MDA-MB-435s; format: cell-based; details: CCK-8 method; for inhibition at 10 µM / inhibition at 100 µM: Homo sapiens, MDA-MB-435S
Experimental: as §1

[7] = tested on: Hep3B2.1-7 human liver cancer cells; assay: CCK-8 proliferation inhibition, Hep3B2.1-7; format: cell-based; details: CCK-8 method; for inhibition at 10 µM / inhibition at 100 µM: Homo sapiens, Hep3B
Experimental: as §1

[8] = tested on: PC-3 human prostate cancer; assay: CCK-8 proliferation inhibition, PC-3; format: cell-based; details: CCK-8 method; for inhibition at 10 µM / inhibition at 100 µM: Homo sapiens
Experimental: as §1

[9] = tested on: Colo320 human rectal cancer cells; assay: CCK-8 proliferation inhibition, Colo320; format: cell-based; details: CCK-8 method; for inhibition at 10 µM / inhibition at 100 µM: Homo sapiens, COLO 320
Experimental: as §1

| Molecule | inhibition at 10 µM [1] [%] | inhibition at 100 µM [1] [%] | inhibition at 10 µM [2] [%] | inhibition at 100 µM [2] [%] | inhibition at 10 µM [3] [%] | inhibition at 100 µM [3] [%] | inhibition at 10 µM [4] [%] | inhibition at 100 µM [4] [%] | inhibition at 10 µM ([5]; compound concentration 10 μM) [%] | inhibition at 100 µM ([5]; compound concentration 100 μM) [%] | inhibition at 10 µM ([6]; compound concentration 10 μM) [%] | inhibition at 100 µM ([6]; compound concentration 100 μM) [%] | inhibition at 10 µM ([7]; compound concentration 10 μM) [%] | inhibition at 100 µM ([7]; compound concentration 100 μM) [%] | inhibition at 10 µM ([8]; compound concentration 10 μM) [%] | inhibition at 100 µM ([8]; compound concentration 100 μM) [%] | inhibition at 10 µM ([9]; compound concentration 10 μM) [%] | inhibition at 100 µM ([9]; compound concentration 100 μM) [%] | further results |
| --- | --- | --- | --- | --- | --- | --- | --- | --- | --- | --- | --- | --- | --- | --- | --- | --- | --- | --- | --- |
| Nc1cnccc1NC(=O)c1ccc(CNC(=O)OCc2ccccc2)cc1 [V-7] | 18.2 | 72.9 | 5.7 | 5.5 | 27.1 | 96 | 51 | 85.1 | -7.8 | 72.3 | 4.5 | 85.5 | -12.3 | 59.2 | 0.6 | 36.9 | -7.1 | 47.2 | Inhibition rate(%) (histone deacetylase; 3.91 μM): 9.5%; Inhibition rate(%) (histone deacetylase; 62.5 μM): 36.0%; Inhibition rate(%) (histone deacetylase; 2 mM): 78.2% |
| Nc1ncccc1NC(=O)c1ccc(CNC(=O)OCc2ccccc2)cc1 [V-8, N-(2-amino-3-pyridyl)-4-(benzyloxyacylaminomethyl)benzamide] | 6.4 | 15.8 | 14.4 | 11.9 | 5.4 | 23.7 | -1.3 | 38.1 | -43.9 | -19.4 | -20.7 | -10.4 | -10.2 | -12.1 | 5.2 | 15.9 | 7.1 | 16.8 | Inhibition rate(%) (histone deacetylase; 3.91 μM): 6.3%; Inhibition rate(%) (histone deacetylase; 62.5 μM): 10.3%; Inhibition rate(%) (histone deacetylase; 2 mM): 35.3% |
| Cc1ccc(COC(=O)NCc2ccc(C(=O)Nc3cccnc3N)cc2)cc1 [V-9, N-(2-amino-3-pyridyl)-4-[(4-methylbenzyloxyacyl)aminomethyl]benzamide] | 15 | 43.9 | 10.5 | 45.9 | 62.2 | 87.9 | 49.4 | 83.2 | -44.3 | -13.1 | -14.3 | 84.1 | 7.3 | 66.6 | 0 | 66.7 | 13 | 45.3 | Inhibition rate(%) (histone deacetylase; 3.91 μM): 2.8%; Inhibition rate(%) (histone deacetylase; 62.5 μM): 16.8%; Inhibition rate(%) (histone deacetylase; 2 mM): 36.7% |
| Nc1cnccc1NC(=O)c1ccc(CNC(=O)CCc2ccccc2)cc1 [V-49] | 2.3 | 54.4 | -6.1 | 7.3 | 28.4 | 93.7 | 22.1 | 71 | -9.5 | 39.9 | 10.3 | 51.9 | 11 | 63.4 | 28.3 | 53.8 | -2.5 | 33.8 |  |
| Cc1ccc(CCC(=O)NCc2ccc(C(=O)Nc3cccnc3N)cc2)cc1 [V-50, N-(2-amino-3-pyridyl)-4-[3-(4-methylphenyl)propionylaminomethyl]benzamide] | 0.4 | 46.9 | 10.2 | 12.9 | 8.9 | 75.9 | 23.8 | 75.7 | 8.6 | 14.2 | 14.7 | 36.9 | -0.5 | 23.5 | 5.5 | -3.8 | 6.8 | 27.4 |  |
| Cc1ccc(CCC(=O)NCc2ccc(C(=O)Nc3ccncc3N)cc2)cc1 [V-51] | -0.5 | 35.2 | 1.4 | -6.1 | 14.8 | 42.4 | -2.4 | 53.5 | -8.9 | -3.2 | 14.1 | 31.3 | 24.9 | 26.9 | 21.4 | 45 | -5.7 | 7.9 |  |
| COc1ccc(CCC(=O)NCc2ccc(C(=O)Nc3cccnc3N)cc2)cc1 [V-52, N-(2-amino-3-pyridyl)-4-[3-(4-methoxyphenyl)propionylaminomethyl]benzamide] | 6.5 | 50.8 | 13.3 | 17.7 | 7.6 | 73.8 | 29 | 67.3 | 9.8 | 9.9 | 13.9 | 22.8 | 19 | 78.6 | -7.4 | 24.7 | 8 | 17.7 |  |
| COc1cc(CCC(=O)NCc2ccc(C(=O)Nc3ccnc(N)c3)cc2)cc(OC)c1OC [V-55, N-(2-amino-4-pyridyl)-4-[3-(3,4,5-methoxyphenyl)propionylaminomethyl]benzamide] |  |  |  |  |  |  |  |  |  |  |  |  |  |  |  |  |  |  | Hut-78 (inhibition %) ([1]; 10 μM): −5.5%; Hut-78 (inhibition %) ([1]; 100 μM): −2.4%; PANC-1 (inhibition %) ([2]; 10 μM): −7.5%; PANC-1 (inhibition %) ([2]; 100 μM): −6.1%; Jurkat E6-1 (inhibition %) ([3]; 10 μM): 10.6%; Jurkat E6-1 (inhibition %) ([3]; 100 μM): 0.6%; K562 (inhibition %) ([4]; 10 μM): −12.8%; K562 (inhibition %) ([4]; 100 μM): −17.4%; A549 (inhibition %) ([5]; compound concentration 10 μM): −16.5%; A549 (inhibition %) ([5]; compound concentration 100 μM): −15.3%; 435s(inhibition %) ([6]; compound concentration 10 μM): 6.5%; 435s(inhibition %) ([6]; compound concentration 100 μM): 4.9%; Hep3B (inhibition %) ([7]; compound concentration 10 μM): 21.7%; Hep3B (inhibition %) ([7]; compound concentration 100 μM): 7.2%; PC-3 (inhibition %) ([8]; compound concentration 10 μM): 13.3%; PC-3 (inhibition %) ([8]; compound concentration 100 μM): 10.9%; Colo320 (inhibition %) ([9]; compound concentration 10 μM): −11.2%; Colo320 (inhibition %) ([9]; compound concentration 100 μM): −2.8% |
| Nc1ncccc1NC(=O)c1ccc(CNC(=O)CCc2ccc(F)cc2)cc1 [V-60, N-(2-amino-3-pyridyl)-4-[3-(4-fluorophenyl)propionylaminomethyl]benzamide] | 11.8 | 28.5 | 27.3 | 26.1 | 11 | 33.3 | 14.6 | 42.7 | 3.7 | 12.2 | -7.8 | -3.4 | 9.9 | 31.7 | 1 | 8.1 | -5.4 | 2.3 |  |
| COc1ccc(/C=C/C(=O)NCc2ccc(C(=O)Nc3ccncc3N)cc2)cc1OC [V-94] | 12.9 | 66.7 | 6 | 27.3 | 65.6 | 95.6 | 35 | 85.7 | 9.1 | 58.4 | 15.1 | 77 | 4.5 | 69.4 | 54.2 | 87.8 | -6.4 | 17.8 |  |
| N-(2-amino-3-pyridyl)-4-[(2-naphthylmethoxyacyl)aminomethyl)benzamide [V-23] |  |  |  |  |  |  |  |  |  |  |  |  |  |  |  |  |  |  | Hut-78 (inhibition %) ([1]; 10 μM): 20.7%; Hut-78 (inhibition %) ([1]; 100 μM): 10.4%; PANC-1 (inhibition %) ([2]; 10 μM): 7.2%; PANC-1 (inhibition %) ([2]; 100 μM): 0.5%; Jurkat E6-1 (inhibition %) ([3]; 10 μM): 33.7%; Jurkat E6-1 (inhibition %) ([3]; 100 μM): 13.9%; K562 (inhibition %) ([4]; 10 μM): 27.2%; K562 (inhibition %) ([4]; 100 μM): 11.9%; A549 (inhibition %) ([5]; compound concentration 10 μM): 4.7%; A549 (inhibition %) ([5]; compound concentration 100 μM): 3.5%; 435s(inhibition %) ([6]; compound concentration 10 μM): 21.6%; 435s(inhibition %) ([6]; compound concentration 100 μM): 21.0%; Hep3B (inhibition %) ([7]; compound concentration 10 μM): 16.3%; Hep3B (inhibition %) ([7]; compound concentration 100 μM): 11.2%; PC-3 (inhibition %) ([8]; compound concentration 10 μM): 10.9%; PC-3 (inhibition %) ([8]; compound concentration 100 μM): 8.6%; Colo320 (inhibition %) ([9]; compound concentration 10 μM): 15.3%; Colo320 (inhibition %) ([9]; compound concentration 100 μM): 3.9% |

— patent US8889876B2, “Histone deacetylase inhibitors and uses thereof” (Jiangsu Hengyi Pharmaceutical Co., Ltd., priority 2008, dated 2014)
